# According to patent US12071488B2, “Method of sensitizing cancer cells to anti-cancer treatment” (TWO TO BIOTECH LTD., priority 2017, dated 2024):
# Tests used:
# [1] = system: HER2; test: HER2 immunohistochemistry of MDA-MB-231 tumor sections from nude mice; type: in vivo, Balb/C Nude mice; conditions: mice with MDA-MB-231 tumors; APC1 350 μg per mouse, three times per week, two weeks; vs saline
# Procedure: MDA-MB-231 cells were grown in DMEM medium with Hepes (Gibco 41965-039) containing 10% heat inactivated Fetal Bovine Serum (Biological industries, #04-121-1A) and 1% Pen-Strep antibiotic (Biological industries, 03-031-1B) inside a 175 cm^2 flask (Nunc 178883). The cells were incubated at 37° C. in the presence of 5% CO2 and 95% humidity. The other cancer cells injected into mice (namely OV90 and Panc1) were prepared in a similar manner.
# When a sufficient number of cells were present, the cells were centrifuged at 300 g for 5 minutes. The supernatant was discarded and 5-10 ml PBS (Biological Industries, #02-023-5A) was added to the cell pellet in order to wash the remaining medium. The cells were centrifuged again (same speed and time), the supernatant was discarded and 5-10 ml Saline was added to the cells. At this stage the cells were counted under a light microscope using a Hemocytometer, and saline was accordingly added to reach a concentration of 8×10^6 cells/200 μl.
# Female Balb/C Nude mice (as detailed above) were retained in the Inventor's animal facility for at least 24 hours. Next all mice were intraperitoneally injected with 8×10^6 cells (in 200 μl saline) using a 27 G needle.
# APC1 peptide was diluted in saline to the appropriate concentration in order to inject a dose of 350 μg/mouse. After the tumors reached the size of 0.5 cm×0.5 cm (usually 5 days) treatment of mice began. […]
# [2] = system: TNBC cancer cells MDA-MB-231 and MDA-MB-468; test: Glutathione level in TNBC cells treated with APC1; type: cell-based, human; conditions: TNBC cancer cells (FIG. 18C)
# Procedure: Gluthatione Assay Kit (Sigma CS0260);
# Cell lines (MDA-MB-231, MDA-MB-468) were grown in 75 cm^2 cell culture flask, reached 80-90% confluence. The cells were treated with APC1 (250 μg/ml, 2 times per week for 1 week).
# Cells were washed twice with 10 ml PBS, PBS (5 ml) was added and the cells were collected by scrapping, centrifuged at 300G, 4° C. for 5 minutes, the supernatant was then discarded and the cells were treated with APC1 as indicated above. The values of the Glutathione Standard Solutions were used to determine the standard curve and the delta A412/min equivalent to 1 nmole of reduced glutathione per well was calculated according to manufacturer's instructions.
# As detailed above, the ovarian cancer cells OV90 and OV3, the pancreatic cancer cells BxPC3 and Panel and the TNBC cancer cells MDA-MB-231 and MDA-MB-468 were treated with APC1 and then the relative glutathione levels in these cells was measured as detailed above.
# [3] = system: MDA-MB-468 cells; test: Analysis of apoptosis in MDA-MB-468 cells with APC1 and Herceptin; type: cell-based, human; conditions: Herceptin 12 μg/ml, APC1 250 μg/ml (FIG. 9)
# Source text: (§1) Cells were examined for apoptosis or HER2 expression using FACS analysis. The HER2 antibody used was abcam ab16901. The marker Annexin (Enco) was used for assessment of apoptosis.
# [4] = system: MDA-MB-231 cells; test: FACS analysis of apoptosis (Annexin) in MDA-MB-231 cells; type: cell-based, human
# Source text: as §1
# [5] = system: estrogen receptor alpha; test: Western blot analysis of estrogen receptor alpha expression in MDA-MB-231 cells; type: cell-based, human; conditions: APC1 250 μg/ml once a week for one week or twice a week for 3 or 4 weeks
# Source text: Abbreviations: M, protein parker; c, control; h, hour; w, week.
# In view of the results shown above, the expression level of estrogen receptor alpha was directly assayed.
sequence,measurement,setting,value
"EKGAAFSPIYPRRK (C terminal peptide of KTPAF50) [APC1, polypeptide consisting of the 14 C-terminal amino acid residues of the peptide KTPAF50]",HER2 expression on the cell surface of tumor cells (immunohistochemistry),[1],clear HER2 expression
same,level of glutathione,[2],decreased
same,level of apoptosis,[3],15%
same,apoptosis with APC1 per se,[4]; APC1 alone (FIG. 5A and FIG. 5B),insignificant (if any)
same,level of cellular apoptosis,"[4]; MDA-MB-231, prolonged incubation, Kadcyla 96 hours (FIG. 6)",low level of apoptosis
same,expression level of estrogen receptor alpha,[5],clear increase
